# Patent US20100004342A1, “LFA-1 Inhibitors and Use Thereof” (priority 2003, published 2010)
# “Also recorded” adds a separate entry of the source. Where two headings read alike, the source gives them in different places.
# Assays:
# LFA-1 and ICAM-1 = LFA-1 and ICAM-1 (Homo sapiens, UniProt P20701); settings: cited from earlier work
# psoriasis = settings: clinical examples, human; cited from earlier work
# CD11a = test: Detection of cell membrane differentiation antigen CD11a of human peripheral blood monocyte (FACS); type: cell-based; settings: for number of the cell expressing CD11a on the cell surface / rate to the total cells of the cells with expression of CD11a or CD18: peripheral blood monocytes cultured with polyamine
# From the text: (§1) Human peripheral blood was collected, and peripheral blood monocytes including lymphocyte, monocyte and the like were recovered from the collected blood by specific gravity centrifugation technique using SEPARATE-L (Muto Pure Chemicals Co. LTD., Tokyo, Japan). Next, the recovered peripheral blood monocytes were suspended in PRMI1640 culture medium (Sigma chemical co., St. Louis, USA) mixed with 10% human serum (Wako Pure Chemical Industries LTD., Osaka, Japan), 0.1% L-glutamine (Invitrogen Corp., CA, USA), and 0.01% penicillin-streptomycin (Invitrogen Corp., CA, USA) and cultured in the humidified air at 37° C. containing 5% carbonic acid gas. […] Following culture for a given time, the peripheral blood monocytes were recovered from the culture medium and used in Examples 2, 4, 5, and 6.
# For confirming that obtained experimental results were not derived from changes produced by the polyamines present in the culture medium and kept in contact with the cells for a long time, different peripheral blood monocytes were prepared.
# (§2) The peripheral blood monocytes cultured for 16 to 80 hours by the method of Example 1 were collected from the cell culture plate so as not to damage the cells. The collected cells were washed with PBS (−) solution and then fixed using phosphate buffered saline without calcium chloride and without magnesium chloride (hereinafter, referred to as PBS (−); Invitrogen Corporation, GIBCO, Grand Island, N.Y., USA) containing 2% paraformaldehyde (Wako Pure Chemical Industries LTD, Osaka, Japan), so as not to achieve change in cell membrane antigen molecules on the cell surface of the peripheral blood monocytes. The peripheral blood monocytes were further washed, to which antibodies to the cell membrane antigen molecules were then added in an amount corresponding to 5 μL (microliter) per 500000 cells. The antibodies used here are CD2 (FITC label), CD4 (FITC), CD8 (PE label), CD11a (FITC), CD11b (PE), CD11c (PE), CD18 (FITC), CD31 (PE), CD49d (PE), CD49e (PE), CD54 (PE), CD62L (PE), CD95 (FITC), and VIA-PROBE (FITC). All of these antibodies are manufactured by PharMingen (A Becton Dickinson Company, San Jose, Calif., USA).
# (§3) After each antibody was added to the cells and reacted in the dark for 20 minutes, positive rate and light intensity of the cell membrane differentiation antigen expressed in the cultured peripheral blood were measured with FACS analyzer (FACSCalibur; manufactured by Becton Dickinson) (Becton Dickinson Japan, Tokyo). The population of the peripheral blood monocytes was of interest in the measurement of florescence of the cell surface, and the measurement of all of the cultured cells was also conducted at the same time. Further, a negative control was used, and a measurement gate was set to obtain each antibody positive rate of the cells within the gate and average fluorescence intensity of the positive cells.
# [1] = test system: peripheral blood monocytes; test: Peripheral blood monocyte adhesion to culture plate (MTT); type: cell-based, human; settings: for number of the cells adhering on the plate surface: cultured with varying concentrations of polyamines for 70 to 80 hours; for inhibition effect on cell adhesion to the cell culture plate: culture for approximately 16 to 24 hours
# Experimental: Peripheral blood monocytes were cultured on a 96-well cell culture plate using the culture medium described above. […] Following the culture, the cell culture plate was washed three times with PBS (−) solution to remove the cells floating in the culture medium. As a result, there remained only the cells adhering on the inside bottom of the cell culture plate. […] The culture supernatant was removed. As a result, there remained only the cells firmly adhering on the inside bottom of the cell culture plate, as described above. […] Thiazolyl blue (MTT) (C18H16N5SBr) (Sigma. St. Louis, USA) was added in the final concentration of 0.35 mg/mL, and the cells were cultured at 37° C. for 2 to 4 hours until the cells were stained. MTT is taken up into cells, and the dye is discolored only in live cells. Therefore, the amount of the live cells existing can be confirmed from the amount of the dye. This means that the larger the amount of the dye is, the higher the number of the cells and the cell activity are. After the cells were sufficiently stained with MTT, the culture supernatant was removed by aspiration. The cells were dissolved by addition of 100 μl of cell lysis solution (2-propanol (isopropanol; Wako Pure Chemical Industries LTD, Osaka, Japan) mixed with 12 M (mol/L) hydrochloric acid (HCl; Wako Pure Chemical Industries LTD, Osaka, Japan)), to recover the dye in the cells. Absorbance in the cell culture plate was measured at 2 absorbance wavelengths of 570 nm and 690 nm using an absorbance reader (Titertek Multiskan MCC/340, Labsystems, Flow Laboratories Inc., USA).
# [2] = test system: vascular endothelial cells; test: Peripheral blood monocyte adhesion to vascular endothelial cell (BCECF-AM); type: cell-based, human; settings: for number of the cells adhering to the vascular endothelial cells: cultured with 100 or 500 μM polyamine for 72 to 80 hours, compared with culture without
# [3] = test system: vascular endothelial cell; settings: cited from earlier work
# rats [4] = settings: cited from earlier work
# [5] = test system: peripheral blood monocytes; test: Number and activity of the total cultured cells (MTT), cytotoxicity check; type: cell-based, human; settings: for cellular cytotoxicity to the peripheral blood monocytes: high concentrations (up to 1 mM); for amount of the MTT dye taken up into the cells (total cultured cells): total cells in the plate, varying polyamine concentration
# Experimental: Then, the culture supernatant in the plate was removed with the utmost caution not to soak up the cells adhering on the inside bottom of the plate. This means that all the cells present in the cell culture plate exist on the inside bottom of the plate. […] Absorbance of the cell culture medium was measured at 2 absorbance wavelengths of 570 nm and 690 nm using an absorbance reader (Titertek Multiskan MCC/340, Labsystems, Flow Laboratories Inc., USA). As a result, each polyamine concentration and the total amount of live cells of the cultured peripheral blood monocytes can be confirmed.
# [6] = test system: peripheral blood monocytes; test: Blastogenesis of peripheral blood monocytes by Con-A or PHA (3H-thymidine); type: cell-based, human; settings: cultured with 100 μM polyamine for approximately 12 to 18 hours
# Experimental: Following the culture, the cells were washed three times with PBS (−) to remove extracellular polyamines, The washed peripheral blood monocytes were cultured for 64 hours in culture medium (RPMI1640 containing 10% fetal bovine serum) mixed with PHA (Difco Laboratories, Detroit, Mich., USA) or Con-A (Sigma chemical co., St. Louis, USA). Then, ^3H-thymidine (Amersham) was added to the cells, followed by additional culture for 8 hours. Following the culture, the peripheral blood monocytes were recovered, and radioactivity of the cells was measured (liquid scintillation counter, LKB-1205, LKB). Since the peripheral blood monocytes activated by mitogen (PHA, Con-A, or the like) cause blast transformation, the cells take up ^3H-thymidine therein. Accordingly, function of cell activation can be measured by measuring the amount of intracellular ^3H-thymidine.
# [7] = test system: adhesion molecules (CD11b, CD11c, CD31, CD49d, CD49e, CD54, and CD62L); test: Detection of adhesion molecules except CD11a and CD18 on human peripheral blood monocyte (FACS); type: cell-based; settings: for average fluorescence intensity of adhesion molecules (CD11b, CD11c, CD31, CD49d, CD49e, CD54, and CD62L) except CD11a and CD18: peripheral blood monocytes cultured with polyamine
# From the text: as §1, §2, §3
# [8] = test system: peripheral blood monocytes; settings: for cellular cytotoxicity: peripheral blood monocytes, VIA-Probe
# From the text: as §1, §2, §3
# rats [9] = settings: cited from earlier work; remark: listed apart in the source
# CD18 = test: Detection of cell membrane differentiation antigen CD18 of human peripheral blood monocyte (FACS); type: cell-based; settings: peripheral blood monocytes cultured with polyamine
# From the text: as §1, with “6. […]” for “6.”
# as §3, with “The population of the peripheral blood monocytes was of interest in the measurement of florescence of the cell surface, and the measurement of all of the cultured cells was also conducted at the same time.” left out
# intestinal mucosa = settings: contained in meal; cited from earlier work
# [10] = test system: functional cell membrane differentiation antigen except adhesion molecules
# From the text: as §1, §2, §3
# [11] = test system: CD16, CD31, CD49d, and CD54; settings: peripheral blood monocyte accidentally infected; cultured with spermine
# Experimental: as §2, with “The antibodies used here are CD2 (FITC label), CD4 (FITC), CD8 (PE label), CD11a (FITC), CD11b (PE), CD11c (PE), CD18 (FITC), CD31 (PE), CD49d (PE), CD49e (PE), CD54 (PE), CD62L (PE), CD95 (FITC), and VIA-PROBE (FITC). All of these antibodies are manufactured by PharMingen (A Becton Dickinson Company, San Jose, Calif., USA).” left out
# as §3, with “The population of the peripheral blood monocytes was of interest in the measurement of florescence of the cell surface, and the measurement of all of the cultured cells was also conducted at the same time.” left out
# [12] = test system: Daudi cells (Burkitt lymphoma cells); settings: cultured overnight with 100 μM spermine, then IL-2 for 72 hours
# [13] = peripheral blood monocytes cultured with polyamine (0, 100, 500 μM) for 70 to 80 hours
# LFA-1 and ICAM-1, sequence (P20701 26-1170): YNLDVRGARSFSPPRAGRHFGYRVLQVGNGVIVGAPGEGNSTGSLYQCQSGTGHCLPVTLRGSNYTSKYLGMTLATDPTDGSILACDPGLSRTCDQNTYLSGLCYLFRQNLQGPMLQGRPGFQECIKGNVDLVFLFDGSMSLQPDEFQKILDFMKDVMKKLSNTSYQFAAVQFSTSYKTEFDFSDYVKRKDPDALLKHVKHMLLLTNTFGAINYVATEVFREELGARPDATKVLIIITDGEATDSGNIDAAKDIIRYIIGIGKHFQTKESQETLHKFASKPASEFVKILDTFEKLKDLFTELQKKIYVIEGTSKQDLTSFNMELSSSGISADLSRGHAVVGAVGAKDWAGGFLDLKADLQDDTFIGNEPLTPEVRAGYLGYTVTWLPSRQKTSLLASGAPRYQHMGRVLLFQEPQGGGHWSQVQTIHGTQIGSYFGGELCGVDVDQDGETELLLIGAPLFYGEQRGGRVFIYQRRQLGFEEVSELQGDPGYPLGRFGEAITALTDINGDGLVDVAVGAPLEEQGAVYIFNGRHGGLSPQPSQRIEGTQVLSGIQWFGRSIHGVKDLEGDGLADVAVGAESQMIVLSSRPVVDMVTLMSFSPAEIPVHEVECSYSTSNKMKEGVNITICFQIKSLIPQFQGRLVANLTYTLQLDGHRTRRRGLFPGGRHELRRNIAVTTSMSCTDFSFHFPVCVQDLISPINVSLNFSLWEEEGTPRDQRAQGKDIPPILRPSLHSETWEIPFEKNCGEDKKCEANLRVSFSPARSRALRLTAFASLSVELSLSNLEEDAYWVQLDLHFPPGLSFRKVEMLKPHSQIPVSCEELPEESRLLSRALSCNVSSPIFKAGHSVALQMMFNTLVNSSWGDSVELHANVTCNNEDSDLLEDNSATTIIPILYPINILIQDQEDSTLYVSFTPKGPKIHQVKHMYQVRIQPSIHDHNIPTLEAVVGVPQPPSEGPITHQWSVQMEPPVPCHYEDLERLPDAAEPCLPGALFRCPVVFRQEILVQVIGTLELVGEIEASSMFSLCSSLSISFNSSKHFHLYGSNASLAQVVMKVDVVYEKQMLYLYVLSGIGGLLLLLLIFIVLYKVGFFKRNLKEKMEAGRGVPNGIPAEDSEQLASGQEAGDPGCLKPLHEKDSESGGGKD
# LFA-1 and ICAM-1, sequence (P05107 23-769 partner): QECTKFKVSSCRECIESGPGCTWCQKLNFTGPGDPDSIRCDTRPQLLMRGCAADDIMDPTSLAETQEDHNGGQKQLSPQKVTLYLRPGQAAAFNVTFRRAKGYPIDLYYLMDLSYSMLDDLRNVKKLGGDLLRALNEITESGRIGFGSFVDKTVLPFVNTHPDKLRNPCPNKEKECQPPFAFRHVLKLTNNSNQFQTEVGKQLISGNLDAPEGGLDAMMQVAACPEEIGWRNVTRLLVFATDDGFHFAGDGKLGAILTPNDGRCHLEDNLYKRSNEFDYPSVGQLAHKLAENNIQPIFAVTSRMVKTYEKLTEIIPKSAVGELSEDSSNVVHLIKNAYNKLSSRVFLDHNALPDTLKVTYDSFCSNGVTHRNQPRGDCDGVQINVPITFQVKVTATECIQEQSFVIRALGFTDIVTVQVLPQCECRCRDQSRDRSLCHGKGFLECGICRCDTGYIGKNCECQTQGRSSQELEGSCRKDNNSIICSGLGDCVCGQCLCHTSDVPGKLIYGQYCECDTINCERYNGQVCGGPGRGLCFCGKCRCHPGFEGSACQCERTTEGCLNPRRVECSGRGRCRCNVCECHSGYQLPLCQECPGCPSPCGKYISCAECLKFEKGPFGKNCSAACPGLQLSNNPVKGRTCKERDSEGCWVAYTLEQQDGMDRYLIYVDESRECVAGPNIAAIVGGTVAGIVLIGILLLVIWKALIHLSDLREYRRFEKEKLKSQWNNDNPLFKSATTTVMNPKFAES
molecule,measurement,setting,value
CC[C@H](C)C(=O)O[C@H]1C[C@@H](C)C=C2C=C[C@H](C)[C@H](CC[C@@H]3C[C@@H](O)CC(=O)O3)[C@H]21 [lovastatin],adhesion between LFA-1 and ICAM-1,LFA-1 and ICAM-1,blocks adhesion between LFA-1 and ICAM-1
efalizumab: a CD11a antibody,psoriasis symptoms,psoriasis,improved
"Cl.Cl.NCCCCN [putrescine, 1,4-Butanediamine dihydrochloride, reference compound]",average fluorescence intensity of CD11a,CD11a; [13],not evident
same,number of the cells adhering on the plate surface,[1],not inhibited
same,number of the cells adhering to the vascular endothelial cells,[2],not inhibited
CC(C)c1c(C(=O)Nc2ccccc2)c(-c2ccccc2)c(-c2ccc(F)cc2)n1CC[C@@H](O)C[C@@H](O)CC(=O)O [atorvastatin],monocyte adhesion to vascular endothelial cell,[3],inhibits monocyte adhesion to vascular endothelial cell
"NCCCCNCCCN [spermidine, N-aminobutyl-1,3-diaminopropane]",50% lethal dose (LD50),"rats [4]; rats, acute toxicity test",600 mg/kg of body weight
same,cellular cytotoxicity to the peripheral blood monocytes,[5],no cellular cytotoxicity
same,amount of the MTT dye taken up into the cells (total cultured cells),[5],no reduction
same,blastogenesis by Con-A or PHA,[6],rather enhanced
same,number of the cell expressing CD11a on the cell surface,CD11a,increased
same,rate to the total cells of the cells with expression of CD11a or CD18,CD11a,not decreased
same,average fluorescence intensity of CD11a,CD11a; [13],inhibited dependently on spermidine concentration
same,"average fluorescence intensity of adhesion molecules (CD11b, CD11c, CD31, CD49d, CD49e, CD54, and CD62L) except CD11a and CD18",[7],not decreased
same,inhibition effect on cell adhesion to the cell culture plate,[1],not exhibited
same,number of the cells adhering on the plate surface,[1],decreased with increase of spermine and spermidine concentrations
same,cellular cytotoxicity,[8],no cellular cytotoxicity
same,amount up to which no side effect is observed,"rats [9]; subacute toxicity test, administration for 6 weeks",up to 83 mg/kg of body weight/day
same,average fluorescence intensity of CD18,CD18,decreased
"NCCCNCCCCNCCCN [spermine, 4,9-diazadodecane-1,12-diamine]",50% lethal dose (LD50),"rats [4]; rat, in vivo",600 mg/kg of body weight
same,concentration in meal at which it has toxicity,intestinal mucosa,≥ 0.2%
same,cellular cytotoxicity to the peripheral blood monocytes,[5],no cellular cytotoxicity
same,amount of the MTT dye taken up into the cells (total cultured cells),[5],no change
same,blastogenesis by Con-A or PHA,[6],rather enhanced
same,average fluorescence intensity of CD11a (decreasing effect),CD11a; cells cultured for 20 to 26 hours,not observed
same,number of the cells having strong fluorescent intensity (CD11a histogram),CD11a; cells supplemented with spermine,decreased
same,average fluorescence intensity of CD11a,"CD11a; cultured with spermine 16 to 24 hours, washed, then cultured without spermine 48 to 56 hours",decrease of the average fluorescence intensity of CD11a
same,number of the cell expressing CD11a on the cell surface,CD11a,increased
same,rate to the total cells of the cells with expression of CD11a or CD18,CD11a,not decreased
same,average fluorescence intensity of CD11a,CD11a; [13],reduced as spermine concentration was increased; also recorded: strongest
same,expression rate of adhesion molecules (expression positive rate),[7]; cells cultured with spermine,not decreased
same,"average fluorescence intensity of adhesion molecules (CD11b, CD11c, CD31, CD49d, CD49e, CD54, and CD62L) except CD11a and CD18",[7],not decreased
same,average fluorescence intensity of CD62L,[7]; peripheral blood monocytes cultured with spermine,obviously increased dependently on spermine concentration
same,inhibition effect on cell adhesion to the cell culture plate,[1],not exhibited
same,number of the cells adhering on the plate surface,[1],decreased with increase of spermine and spermidine concentrations
same,inhibition of cell adhesion to the inside bottom of the culture plate,"[1]; plate inverted and centrifuged (500 rpm, 5 minutes) after 70 to 82 hours culture",more remarkable result of the inhibition
same,cellular cytotoxicity,[8],no cellular cytotoxicity
same,dead cells (VIA-Probe),[8]; spermine concentration that most strongly decreased CD11a and CD18 fluorescence,not increased
same,average fluorescence intensity of cell membrane differentiation antigens other than the adhesion molecules,"[10]; FIG. 8, cells cultured with spermine",no decrease
same,expression rate of cell membrane differentiation antigen except adhesion molecules (expression positive rate),[10]; cells cultured with spermine,not decreased
same,"expression of cell membrane differentiation antigen such as CD16, 31, 49d, and 54 (average fluorescence intensity)",[11],markedly decreased
same,number of the adhering cells (vascular endothelial cells),[2]; culture with 500 μM spermine for 20 hours,not decreased
same,number of the cells adhering to the vascular endothelial cells,[2],low
same,amount up to which no side effect is observed,"rats [9]; rat, in vivo",up to 19 mg/kg of body weight/day
same,cellular cytotoxicity (LAK activity) of the peripheral blood monocytes,[12],reduced
same,average fluorescence intensity of CD18,CD18,decreased with increase of spermine concentration
